{"source": "the supplement of paper PMC10307832", "test_in_all_cases": "relative viability (nuclei count vs DMSO), 5 days (fraction); higher = more cells survive", "key": {"[1]": {"compound": "CN(C)C(=N)NC(=N)N [Metformin] + N=C(N)NC(=N)NCCc1ccccc1 [Phenformin] (partner 250 µM)", "in_short": "(§1)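 After 5 days of treatment, lung cancer cells in 1536-well plates were fixed and stained in a single step (final 0.05% Triton X-100, 1% formaldehyde, 1 ug/ml Hoechst) and their nuclei counted on 4× images. Treatment had been applied by pin tool the day after seeding as one drug alone or as a fixed anchor-drug dose with five library-drug doses (not always all listed) in √10 steps. Relative viability is the nuclei count of treated wells divided by that of vehicle wells, and values are medians of duplicate plates.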"}, "[2]": {"compound": "N#CC1(c2ccc(NC(=O)c3cccnc3NCc3ccncc3)cc2)CCCC1 [Apatinib] + CC(=O)Nc1cccc(-n2c(=O)n(C3CC3)c(=O)c3c(Nc4ccc(I)cc4F)n(C)c(=O)c(C)c32)c1 [Trametinib] (partner 0.02 µM)", "in_short": "as §1"}, "[3]": {"compound": "N#CC1(c2ccc(NC(=O)c3cccnc3NCc3ccncc3)cc2)CCCC1 [Apatinib] + CC1(C)CCC(c2ccc(Cl)cc2)=C(CN2CCN(c3ccc(C(=O)NS(=O)(=O)c4ccc(N[C@H](CCN5CCOCC5)CSc5ccccc5)c(S(=O)(=O)C(F)(F)F)c4)cc3)CC2)C1 [Navitoclax] (partner 0.5 µM)", "in_short": "as §1"}, "[4]": {"compound": "N#CC1(c2ccc(NC(=O)c3cccnc3NCc3ccncc3)cc2)CCCC1 [Apatinib] + COc1cc2c(Oc3ccc(NC(=O)C4(C(=O)Nc5ccc(F)cc5)CC4)cc3F)ccnc2cc1OCCCN1CCOCC1 [Foretinib] (partner 0.25 µM)", "in_short": "as §1"}}}
{"cell line": "NCI-H460", "values": [{"measurement": "relative viability", "setting": "[1]; first compound 10 µM", "value": 0.426}, {"measurement": "relative viability", "setting": "[1]; first compound 31.62 µM", "value": 0.541}, {"measurement": "relative viability", "setting": "[1]; first compound 100 µM", "value": 0.516}, {"measurement": "relative viability", "setting": "[1]; first compound 316.23 µM", "value": 0.509}, {"measurement": "relative viability", "setting": "[1]; first compound 1000 µM", "value": 0.523}, {"measurement": "relative viability", "setting": "[2]; first compound 0.08 µM", "value": 0.119}, {"measurement": "relative viability", "setting": "[2]; first compound 0.253 µM", "value": 0.172}, {"measurement": "relative viability", "setting": "[2]; first compound 0.8 µM", "value": 0.223}, {"measurement": "relative viability", "setting": "[2]; first compound 2.53 µM", "value": 0.134}, {"measurement": "relative viability", "setting": "[2]; first compound 8 µM", "value": 0.128}, {"measurement": "relative viability", "setting": "[3]; first compound 0.08 µM", "value": 1.1}, {"measurement": "relative viability", "setting": "[3]; first compound 0.253 µM", "value": 1.14}, {"measurement": "relative viability", "setting": "[3]; first compound 0.8 µM", "value": 1.03}, {"measurement": "relative viability", "setting": "[3]; first compound 2.53 µM", "value": 1.06}, {"measurement": "relative viability", "setting": "[3]; first compound 8 µM", "value": 1.05}, {"measurement": "relative viability", "setting": "[4]; first compound 0.08 µM", "value": 0.941}, {"measurement": "relative viability", "setting": "[4]; first compound 0.253 µM", "value": 0.943}, {"measurement": "relative viability", "setting": "[4]; first compound 0.8 µM", "value": 0.942}, {"measurement": "relative viability", "setting": "[4]; first compound 2.53 µM", "value": 1.04}, {"measurement": "relative viability", "setting": "[4]; first compound 8 µM", "value": 0.897}]}
